Values after ≈ are worked out from the molar mass of the structure shown. Values joined by “and” are separate entries in the source; they are usually repeats but may differ in a detail not shown here. Equal values may be shown once. Read-outs that look alike come from different tables or passages of the source.
Columns and labels:
[1] = 0.5 mg Dexam 3 × daily perorally, after 5 days
[2] = Clinical test of phenylbutazone and phenylbutazone + glucoprotein, BSG (Table 5); type: in vivo, patients; conditions: 1.0 g phenylbutazone 3 × daily orally, after 8 days
[3] = Clinical test of Norfenefrin and Norfenefrin + glucoprotein, blood pressure (Table 6); type: in vivo, patients; conditions: 14th day, 3.0 mg Norfenefrin once daily
[4] = tested on: stapyloc. aur. ATCC 11522; experiment: Bactericidal activity in vitro, cylinder test (Table 1); type: cell-based; conditions: 18 h at 37° C., average of three individual measurements; read-out: Bactericidal action (MIC)
[5] = tested on: staphyloc. aur. NCTC 6571; experiment: as above; type: cell-based; conditions: 18 h at 37° C., average of three individual measurements; read-out: Bactericidal action (MIC)
[6] = tested on: stapyloc. aur. ATCC 6538 P (Penicillinase forming substance); experiment: as above; type: cell-based; conditions: 18 h at 37° C., average of three individual measurements
[7] = tested on: strept. pyogenes ATCC 8668; experiment: as above; type: cell-based; conditions: Streptococcus pyogenes, ATCC8668; 18 h at 37° C., average of three individual measurements; read-out: Bactericidal action (MIC)
[8] = tested on: strept. faecalis ATCC 8043; experiment: as above; type: cell-based; conditions: Enterococcus faecalis, ATCC8043; 18 h at 37° C., average of three individual measurements; read-out: Bactericidal action (MIC)
[9] = tested on: strept. faecalis ATCC 10541; experiment: as above; type: cell-based; conditions: Enterococcus faecalis, ATCC10541; 18 h at 37° C., average of three individual measurements; read-out: Bactericidal action (MIC)
[10] = tested on: strept. faecalis ATCC 19433; experiment: as above; type: cell-based; conditions: Enterococcus faecalis, ATCC19433; 18 h at 37° C., average of three individual measurements; read-out: Bactericidal action (MIC)
[11] = tested on: strept. pneumon. ATCC 6301; experiment: as above; type: cell-based; conditions: 18 h at 37° C., average of three individual measurements; read-out: Bactericidal action (MIC)
[12] = tested on: strept. pneumon. ATCC 6302; experiment: as above; type: cell-based; conditions: 18 h at 37° C., average of three individual measurements; read-out: Bactericidal action (MIC)
h. influencae ATCC 19418 = experiment: as above; type: cell-based; conditions: 18 h at 37° C., average of three individual measurements; read-out: Bactericidal action (MIC)
[13] = tested on: ps. aeruginosa NCTC 10662; experiment: as above; type: cell-based; conditions: Pseudomonas aeruginosa, NCTC10662; 18 h at 37° C., average of three individual measurements; read-out: Bactericidal action (MIC)
[14] = tested on: escherichia coli NCTC 10418; experiment: as above; type: cell-based; conditions: NCTC10418, 18 h at 37° C., average of three individual measurements, read-out: Bactericidal action (MIC)
[15] = tested on: proteus mirabilis b, Penicillinase-forming substance; experiment: Bactericidal MIC-values, 50 strains (Table 2); type: cell-based; conditions: of 50 strains; MIC steps 2000 to 0.0002 γ/ml, counts in descending MIC order
[16] = tested on: staphyl. aur. b, Penicillinase-forming substance; experiment: Bactericidal MIC-values, 50 strains (Table 2); type: cell-based; conditions: of 50 strains; MIC steps 2000 to 0.0002 γ/ml, counts in descending MIC order
aerobacter aeroges = experiment: Bactericidal MIC-values, 50 strains (Table 2); type: cell-based; conditions: of 50 strains; MIC steps 2000 to 0.0002 γ/ml, counts in descending MIC order
psuedomonas aeruginosa = experiment: Bactericidal MIC-values, 50 strains (Table 2); type: cell-based; conditions: of 50 strains; MIC steps 2000 to 0.0002 γ/ml, counts in descending MIC order
[17] = tested on: strains which form Penicillinase; experiment: Bactericidal activity against penicillinase-forming strains (statement); type: cell-based; conditions: ampicillin alone
fungi = experiment: Fungicidal activity (statement); type: cell-based; conditions: ampicillin alone
Protocol: The MIC-values for the fungicidal activity of the combination product were determined according to the provisions of the American Soc. of Clinical Microbiology, Manual of Clinical Microbiology, 2nd Edition (Washington, D.C.).

[18] = three hours after medication, individual patient

C[C@@H]1C[C@H]2[C@@H]3CCC4=CC(=O)C=C[C@]4(C)[C@@]3(F)[C@@H](O)C[C@]2(C)[C@@]1(O)C(=O)CO [Dexam, dexamethasone]
ASLO, average ([1]; average of 10 patients): 220 i.E.
BSG after 1 h., average ([1]; average of 10 patients): 23.5
BSG after 2 h., average ([1]; average of 10 patients): 38.8
ASLO ([1]; individual patient): 200 i.E. and 100 i.E. and 300 i.E.
BSG after 1 h. ([1]; individual patient): 25 and 20 and 30 and 24 and 22
BSG after 2 h. ([1]; individual patient): 30 and 35 and 40 and 45 and 50 and 42 and 38 and 36 and 34

CCCCC1C(=O)N(c2ccccc2)N(c2ccccc2)C1=O [phenylbutazone]
BSG after 1 h., average ([2]; average of 10 patients): 33.2
BSG after 2 h., average ([2]; average of 10 patients): 57.9
BSG after 1 h. ([2]; individual patient): 38 and 40 and 35 and 30 and 28 and 32 and 25
BSG after 2 h. ([2]; individual patient): 62 and 60 and 50 and 45 and 58

NCC(O)c1cccc(O)c1 (centres unmarked) [Norfenefrin]
diastolic blood pressure [3, 18]: 70 and 75 and 80
systolic blood pressure [3, 18]: 120 and 125 and 130
diastolic blood pressure, average ([3]; average of 10 patients): 76.5
systolic blood pressure, average ([3]; average of 10 patients): 126.0

CC1(C)S[C@@H]2[C@H](NC(=O)[C@H](N)c3ccccc3)C(=O)N2[C@H]1C(=O)O [Ampicillin, D-(2-amino-2-phenylacetamido)-3,3-dimethyl-7-oxo-4-thia-1-azabicyclo-[3,2,0]-heptane-2-carboxylic acid]
MIC [4]: 0.06 µg/mL (≈ 0.172 µM)
MIC [5]: 0.06 µg/mL (≈ 0.172 µM)
Bactericidal action (MIC) [6]: resistant
MIC [7]: 0.03 µg/mL (≈ 0.0859 µM)
MIC [8]: 2 µg/mL (≈ 5.72 µM)
MIC [9]: 1 µg/mL (≈ 2.86 µM)
MIC [10]: 2 µg/mL (≈ 5.72 µM)
MIC [11]: 0.06 µg/mL (≈ 0.172 µM)
MIC [12]: 0.06 µg/mL (≈ 0.172 µM)
MIC (h. influencae ATCC 19418): 0.25 µg/mL (≈ 0.715 µM)
MIC [13]: 240 µg/mL (≈ 687 µM)
MIC [14]: 8 µg/mL (≈ 22.9 µM)
Bactericidal MIC-values: number of strains at each MIC step [15]: 50
Bactericidal MIC-values: number of strains at each MIC step [16]: 50
Bactericidal MIC-values: number of strains at each MIC step (aerobacter aeroges): 50
Bactericidal MIC-values: number of strains at each MIC step (psuedomonas aeruginosa): 50
action against Penicillinase-forming strains [17]: completely ineffective
fungicidal activity (fungi): no fungicidal activity which can be evaluated in practice

— patent US4153686A, “Process for the preparation of glucoproteins as well as the use thereof” (priority 1976, dated 1979)
